Measured values published in patent US20150030706A1, “USE OF ESSENTIAL OILS, SUPERCRITICAL EXTRACTS AND AQUEOUS RESIDUES GENERATED DURING A PROCESS FOR OBTAINING ORGANIC EXTRACTS FROM THE ARTEMISIA ABSINTHIUM L. PLANT” (CONSEJO SUPERIOR DE INVESTIGACIONES CIENTIFICAS (CSIC), priority 2012, published 2015).

System: Meloidogyne javanica
Experiment: Nematicide activity against infective juveniles (J2)
Type: in vivo
Description: The assays were carried out according to the methodology described for Meloidogyne sp (Hernández-Carlos et al. 2011, Sosa et al. 2012) using the biological stage of infected juvenile (J2) Meloidogyne javanica in the assays. The activity of each product was quantified at different concentrations, shown in Table 5 and in at least four copies, each bio-assay was repeated at least three times and the nematostatic/nematicide activity was determined from the percentage of infected juvenile plants immobilised/which died.

C=C/C(C)=C\CC(O)C(C)(C)O (stereo not shown) [(Z)-2,6-dimethylocta-5,7-diene-2,3-diol]
M. javanica % J2 immobilised Average (Concentration 0.02 μg/μl): 4.2% | M. javanica % J2 immobilised Average (Concentration 0.1 μg/μl): 19.7% | M. javanica % J2 immobilised Average (Concentration 0.25 μg/μl): 43.9% | M. javanica % J2 immobilised Average (Concentration 0.5 μg/μl): 100%
